The source of these data is patent publication US20250320193A1, “OXOISOINDOLINYL SUBSTITUTED PIPERIDINEDIONE DERIVATIVE AND USE THEREOF” (GLUETACS THERAPEUTICS (SHANGHAI) CO., LTD., priority 2022, published 2025).

The target in one experiment is IKZF1 (Homo sapiens (Human), UniProt Q13422+Q96SW2). Briefly: Western blot, substrate protein expression in hPBMC: IKZF1. As to conditions: for substrate protein remaining % IKZF1: hPBMC, compound 500 nM, 24 hours, Western blot; for concentration at which IKZF1 protein was significantly degraded (Western blot, FIG. 1): hPBMCs. Type of experiment: cell-based. In short, it runs like this: (§1)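 hPBMC, 1×10^6 cells/mL, 24 h compound exposure; RIPA lysis, BCA protein assay, SDS-PAGE, NC membrane immunoblot. Densitometry vs internal control → % protein remaining; degradation % = 100% − remaining; DC50 = conc. at 50% of DMSO band signal.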
(In western blotting, separated proteins are transferred to a membrane and probed.)

In experiment [1] the target is human Cereblon WT GST-tagged protein (Homo sapiens (Human), UniProt Q96SW2). Briefly: CRBN-binding affinity, HTRF (CEREBLON BINDING kit, CISBIO). To be noted: HTRF inhibitory activity. In short, it runs like this:
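HTRF competition format: test compound displaces Thalidomide-Red from GST-tagged human Cereblon WT, detected with a Eu-labelled anti-GST antibody. Percent CRBN binding inhibition was derived from the 620 nm signal, normalized to solvent-control and protein-free blank wells.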

The target in another experiment is GSPT1 (Homo sapiens (Human), UniProt P15170+Q96SW2). Briefly: Western blot, substrate protein expression in hPBMC: GSPT1. It counts as cell-based. As to conditions: for substrate protein remaining % GSPT1: hPBMC, compound 500 nM, 24 hours, Western blot; for concentration at which GSPT1 protein was clearly/significantly degraded (Western blot, FIG. 1): hPBMCs. In short, it runs like this:
as §1

The next experiment addresses IKZF3 (Homo sapiens (Human), UniProt Q96SW2+Q9UKT9). Briefly: Western blot, substrate protein expression in hPBMC: IKZF3. To be noted: for substrate protein remaining % IKZF3: hPBMC, compound 500 nM, 24 hours, Western blot; for concentration at which IKZF3 protein was significantly degraded (Western blot, FIG. 1): hPBMCs. It counts as cell-based. In short, it runs like this:
as §1

The subject of experiment [2] is MM.1S cells (human multiple myeloma cells). Briefly: Tumor cell proliferation inhibition, CCK-8. It counts as cell-based. To be noted: MM1.S, MM.1S cells, CCK-8, read-out: inhibitory activity (IC50, nM) MM.1S. The protocol:
(§2) The tumor cells used herein were cultured in a cell culture medium listed in table 2 at 37° C. in an incubator with 5% CO2. Prior to experimentation, all cells used were correctly identified by STR profiling, and tested negative for mycoplasma through routine screenings.
(§3) IC50 values of the compounds of the present disclosure (including the compounds in Table 1 and the Examples 1-305 compounds) were measured using the Meilun Cell Counting Kit-8 kit from Dalian Meilun Biotech Co., Ltd. Assay details are as follows: tumor cells were seeded in a 96-well plate at a density listed in Table 5. After 24 h, 100 μL of the inoculated cells were treated with 0.5 μL of the compounds of the present disclosure (including the compounds in Table 1 and the Examples 1-305 compounds) at 10 different successively decreasing concentrations (starting at the highest concentration of 10 μM; 5-fold serial dilutions). After the cells were treated with the compounds of the present disclosure for a period of time, the cell viability detection reagent was added to the culture medium for cell viability assessment according to the instructions provided with the CCK-8 kit. […] The growth inhibition of the compounds of the present disclosure on cells was plotted by Prism Graphpad software, and the IC50 values of the compounds of the present disclosure were calculated therefrom.

Experiment [3] has as its system MDA-MB-231 cells (human breast adenocarcinoma cells). Briefly: Tumor cell proliferation inhibition, CCK-8. It counts as cell-based. To be noted: MDA-MB-231 cells, CCK-8, read-out: inhibitory activity (IC50, nM) MDA-MB-231. The protocol: as §2, §3
The subject of experiment [4] is TMD8 cells (human diffuse large B-cell lymphoma cells). The experiment in a line: Tumor cell proliferation inhibition, CCK-8. Type of experiment: cell-based. To be noted: TMD8 cells, CCK-8, read-out: inhibitory activity (IC50, nM) TMD8. Here is the method: as §2, §3
Experiment [5] relates to H146 cells (human small cell lung carcinoma cells). Briefly: Tumor cell proliferation inhibition, CCK-8. It counts as cell-based. As to conditions: NCI-H146, H146 cells, CCK-8, read-out: inhibitory activity (IC50, nM) H146. Here is the method:
as §2, §3

Chain of IKZF3 (Q9UKT9 whole entry): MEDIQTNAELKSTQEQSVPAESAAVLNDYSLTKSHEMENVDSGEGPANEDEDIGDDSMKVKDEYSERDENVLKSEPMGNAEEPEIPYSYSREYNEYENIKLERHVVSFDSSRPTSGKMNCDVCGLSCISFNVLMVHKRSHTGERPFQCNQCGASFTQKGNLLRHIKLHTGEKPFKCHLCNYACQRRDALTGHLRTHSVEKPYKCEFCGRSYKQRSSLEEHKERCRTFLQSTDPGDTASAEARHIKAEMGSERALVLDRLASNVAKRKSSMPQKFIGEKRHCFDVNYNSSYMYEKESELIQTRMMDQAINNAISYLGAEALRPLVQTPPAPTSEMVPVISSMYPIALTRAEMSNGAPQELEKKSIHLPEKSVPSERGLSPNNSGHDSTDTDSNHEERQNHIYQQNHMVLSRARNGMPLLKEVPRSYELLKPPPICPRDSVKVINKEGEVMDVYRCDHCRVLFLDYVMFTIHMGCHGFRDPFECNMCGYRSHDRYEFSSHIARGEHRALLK
Chain of IKZF3 (Q96SW2 whole entry): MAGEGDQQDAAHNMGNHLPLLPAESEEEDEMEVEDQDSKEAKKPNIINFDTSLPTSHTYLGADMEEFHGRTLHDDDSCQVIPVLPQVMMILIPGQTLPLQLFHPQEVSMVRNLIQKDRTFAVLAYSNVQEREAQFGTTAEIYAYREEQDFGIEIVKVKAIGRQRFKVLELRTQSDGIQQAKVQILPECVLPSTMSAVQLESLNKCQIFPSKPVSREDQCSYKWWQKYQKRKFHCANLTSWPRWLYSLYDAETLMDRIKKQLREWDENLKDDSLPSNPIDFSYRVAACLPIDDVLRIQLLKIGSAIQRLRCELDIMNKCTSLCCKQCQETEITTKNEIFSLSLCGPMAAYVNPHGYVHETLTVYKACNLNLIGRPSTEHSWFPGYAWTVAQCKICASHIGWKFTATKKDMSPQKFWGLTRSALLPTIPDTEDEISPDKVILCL
Chain of IKZF3 (Q16531 whole entry partner): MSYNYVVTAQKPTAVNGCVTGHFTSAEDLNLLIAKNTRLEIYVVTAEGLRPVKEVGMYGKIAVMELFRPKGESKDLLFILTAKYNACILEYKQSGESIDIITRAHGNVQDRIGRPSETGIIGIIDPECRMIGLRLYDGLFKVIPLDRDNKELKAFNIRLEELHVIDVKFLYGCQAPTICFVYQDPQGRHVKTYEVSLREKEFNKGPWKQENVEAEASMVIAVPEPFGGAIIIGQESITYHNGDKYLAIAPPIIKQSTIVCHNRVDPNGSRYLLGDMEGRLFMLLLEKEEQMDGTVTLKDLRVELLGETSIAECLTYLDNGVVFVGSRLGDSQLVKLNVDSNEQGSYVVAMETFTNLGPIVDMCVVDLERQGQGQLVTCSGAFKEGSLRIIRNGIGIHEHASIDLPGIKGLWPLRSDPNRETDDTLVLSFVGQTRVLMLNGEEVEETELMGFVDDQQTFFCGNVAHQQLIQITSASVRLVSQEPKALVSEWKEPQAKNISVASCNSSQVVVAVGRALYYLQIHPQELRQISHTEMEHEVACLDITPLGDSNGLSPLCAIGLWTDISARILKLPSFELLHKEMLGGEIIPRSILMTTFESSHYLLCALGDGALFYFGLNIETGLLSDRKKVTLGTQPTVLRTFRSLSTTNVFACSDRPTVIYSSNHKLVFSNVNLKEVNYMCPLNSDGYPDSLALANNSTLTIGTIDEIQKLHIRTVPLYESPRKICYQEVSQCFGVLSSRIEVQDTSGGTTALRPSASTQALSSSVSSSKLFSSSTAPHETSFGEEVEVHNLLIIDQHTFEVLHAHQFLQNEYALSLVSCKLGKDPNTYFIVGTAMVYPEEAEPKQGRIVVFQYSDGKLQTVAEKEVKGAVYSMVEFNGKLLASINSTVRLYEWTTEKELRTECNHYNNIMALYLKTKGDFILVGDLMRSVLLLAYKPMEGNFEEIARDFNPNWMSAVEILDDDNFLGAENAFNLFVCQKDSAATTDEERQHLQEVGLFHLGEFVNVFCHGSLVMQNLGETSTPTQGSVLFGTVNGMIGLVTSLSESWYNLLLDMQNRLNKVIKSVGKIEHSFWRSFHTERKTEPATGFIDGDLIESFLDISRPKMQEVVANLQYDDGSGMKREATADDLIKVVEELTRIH
Chain of GSPT1 (P15170 whole entry): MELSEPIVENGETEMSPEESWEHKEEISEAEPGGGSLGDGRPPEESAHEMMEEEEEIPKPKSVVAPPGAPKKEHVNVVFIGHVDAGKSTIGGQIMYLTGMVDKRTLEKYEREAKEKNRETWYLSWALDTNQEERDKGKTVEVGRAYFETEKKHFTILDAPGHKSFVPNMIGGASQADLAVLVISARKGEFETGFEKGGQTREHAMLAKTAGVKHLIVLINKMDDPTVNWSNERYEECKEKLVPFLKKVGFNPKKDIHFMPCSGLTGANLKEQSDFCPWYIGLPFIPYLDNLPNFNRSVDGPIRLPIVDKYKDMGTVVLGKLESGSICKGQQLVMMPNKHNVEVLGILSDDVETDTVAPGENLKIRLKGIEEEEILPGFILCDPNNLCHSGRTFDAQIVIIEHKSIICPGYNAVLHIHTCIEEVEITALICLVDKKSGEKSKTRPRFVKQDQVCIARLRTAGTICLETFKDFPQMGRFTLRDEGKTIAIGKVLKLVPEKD
Chain of GSPT1 (Q96SW2 whole entry): as the sequence (Q96SW2 whole entry) above
Chain of GSPT1 (Q16531 whole entry partner): as the sequence (Q16531 whole entry partner) above
Chain of IKZF1 (Q13422 whole entry): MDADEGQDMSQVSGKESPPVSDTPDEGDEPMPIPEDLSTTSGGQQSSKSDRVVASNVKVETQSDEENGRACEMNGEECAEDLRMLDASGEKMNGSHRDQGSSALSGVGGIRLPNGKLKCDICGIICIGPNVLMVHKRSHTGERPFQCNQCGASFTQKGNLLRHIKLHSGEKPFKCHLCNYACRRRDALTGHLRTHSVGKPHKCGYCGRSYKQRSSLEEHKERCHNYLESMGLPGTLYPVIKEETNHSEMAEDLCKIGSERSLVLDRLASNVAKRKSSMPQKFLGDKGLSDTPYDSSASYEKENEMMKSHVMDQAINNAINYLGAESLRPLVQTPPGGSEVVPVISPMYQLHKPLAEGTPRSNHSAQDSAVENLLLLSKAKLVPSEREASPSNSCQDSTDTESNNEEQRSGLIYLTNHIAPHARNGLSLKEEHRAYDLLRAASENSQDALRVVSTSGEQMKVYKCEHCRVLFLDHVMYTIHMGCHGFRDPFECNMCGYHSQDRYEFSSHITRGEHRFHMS
Chain of IKZF1 (Q96SW2 whole entry): as the sequence (Q96SW2 whole entry) above
Chain of IKZF1 (Q16531 whole entry partner): as the sequence (Q16531 whole entry partner) above
Chain of human Cereblon WT GST-tagged protein (Q96SW2 whole entry): as the sequence (Q96SW2 whole entry) above

Consider `O=C1CCC(N2Cc3cc(CN4CCC(N(c5ccccc5)c5ccccn5)CC4)ccc3C2=O)C(=O)N1` (stereo not drawn) [GT-04525, 3-(1-oxo-5-((4-(phenyl(pyridin-2-yl)amino)piperidin-1-yl)methyl)isoindolin-2-yl)piperidine-2,6-dione], for which the “substrate protein remaining % IKZF1” value on IKZF1 was “A (A represents 0% ≤ substrate protein remaining % ≤ 50%)”. Also, on IKZF1, the “concentration at which IKZF1 protein was significantly degraded (Western blot, FIG. 1)” value is “below 50 nM”. For the same molecule, the IC50 was below 0.5 µM in experiment [1]; below 1 nM in experiment [2]; 1 to 10 nM in experiment [3]; 1 to 10 nM in experiment [4]; 1 to 10 nM in experiment [5]. Besides, the “substrate protein remaining % GSPT1” value on GSPT1 was “A (A represents 0% ≤ substrate protein remaining % ≤ 50%)”. The “concentration at which GSPT1 protein was clearly/significantly degraded (Western blot, FIG. 1)” value on GSPT1 was “below 50 nM”. Further, the “substrate protein remaining % IKZF3” value at IKZF3 is given as “A (A represents 0% ≤ substrate protein remaining % ≤ 50%)”. Besides, the “concentration at which IKZF3 protein was significantly degraded (Western blot, FIG. 1)” value at IKZF3 is reported as “below 50 nM”.

For `O=C1CCC(N2Cc3c(ccc(CN4CCC(N(c5ccccc5)c5ccccn5)CC4)c3F)C2=O)C(=O)N1` (stereo not drawn) [GT-05856, 3-(4-fluoro-1-oxo-5-((4-(phenyl(pyridin-2-yl)amino)piperidin-1-yl)methyl)isoindolin-2-yl)piperidine-2,6-dione], the “substrate protein remaining % IKZF1” value at IKZF1 was “A (A represents 0% ≤ substrate protein remaining % ≤ 50%)”. Also, the “concentration at which IKZF1 protein was significantly degraded (Western blot, FIG. 1)” value at IKZF1 is reported as “below 50 nM”. The IC50 in experiment [1] was below 0.5 µM; in experiment [2], below 1 nM; in experiment [3] it was 1 to 10 nM; in experiment [4], 1 to 10 nM; in experiment [5] it was 1 to 10 nM. The “substrate protein remaining % GSPT1” value at GSPT1 is listed as “A (A represents 0% ≤ substrate protein remaining % ≤ 50%)”. Moreover, on GSPT1, the “concentration at which GSPT1 protein was clearly/significantly degraded (Western blot, FIG. 1)” value is “below 50 nM”. For the same molecule, the “substrate protein remaining % IKZF3” value at IKZF3 is given as “A (A represents 0% ≤ substrate protein remaining % ≤ 50%)”. For the same molecule, the “concentration at which IKZF3 protein was significantly degraded (Western blot, FIG. 1)” value at IKZF3 was “below 50 nM”.

`O=C1CCC(N2Cc3cc(CN4CCC(N(c5ccccc5)c5ccccn5)CC4)c(F)cc3C2=O)C(=O)N1` (stereo not drawn) [GT-05857, 3-(6-fluoro-1-oxo-5-((4-(phenyl(pyridin-2-yl)amino)piperidin-1-yl)methyl)isoindolin-2-yl)piperidine-2,6-dione]: the “substrate protein remaining % IKZF1” value on IKZF1 is listed as “A (A represents 0% ≤ substrate protein remaining % ≤ 50%)”. For the same molecule, the “concentration at which IKZF1 protein was significantly degraded (Western blot, FIG. 1)” value on IKZF1 is given as “below 50 nM”. In addition, the IC50 is below 0.5 µM in experiment [1]; below 1 nM in experiment [2]; 1 to 10 nM in experiment [3]; 1 to 10 nM in experiment [4]; 1 to 10 nM in experiment [5]. Also, on GSPT1, the “substrate protein remaining % GSPT1” value was “A (A represents 0% ≤ substrate protein remaining % ≤ 50%)”. At GSPT1, the “concentration at which GSPT1 protein was clearly/significantly degraded (Western blot, FIG. 1)” value is reported as “below 50 nM”. Besides, the “substrate protein remaining % IKZF3” value at IKZF3 is on record as “A (A represents 0% ≤ substrate protein remaining % ≤ 50%)”. Moreover, the “concentration at which IKZF3 protein was significantly degraded (Western blot, FIG. 1)” value at IKZF3 is “below 50 nM”.

For the molecule `O=C1CCC(N2Cc3cc(N4C5CCC4CN(C(c4ccccc4)c4ccccc4)C5)ccc3C2=O)C(=O)N1` (stereo not drawn) [GT-05866, 3-(5-(3-benzhydryl-3,8-diazabicyclo[3.2.1]octan-8-yl)-1-oxoisoindolin-2-yl)piperidine-2,6-dione], the “substrate protein remaining % IKZF1” value on IKZF1 was “B (B represents substrate protein remaining % > 50%)”. The half-maximal inhibitory concentration (IC50) in experiment [1] fell in the range of 0.5 to 1 µM; in experiment [2], 1 to 10 nM; in experiment [3], 10 to 50 nM; in experiment [4] it was 50 to 100 nM; in experiment [5], 10 to 50 nM. On GSPT1, the “substrate protein remaining % GSPT1” value is reported as “A (A represents 0% ≤ substrate protein remaining % ≤ 50%)”. Besides, the “substrate protein remaining % IKZF3” value on IKZF3 was “A (A represents 0% ≤ substrate protein remaining % ≤ 50%)”.

For `O=C1CCC(N2Cc3cc(CN4C[C@@H]5C[C@H]4CN5C(c4ccccc4)c4ccccc4)c(F)cc3C2=O)C(=O)N1` (stereo partly drawn) [GT-05894, 3-(5-(((1S,4S)-5-benzhydryl-2,5-diazabicyclo[2.2.1]heptan-2-yl)methyl)-6-fluoro-1-oxoisoindolin-2-yl)piperidine-2,6-dione], on IKZF1, the “substrate protein remaining % IKZF1” value was “A (A represents 0% ≤ substrate protein remaining % ≤ 50%)”. The IC50 in experiment [1] is below 0.5 µM; in experiment [2], 1 to 10 nM; in experiment [3] it was 50 to 100 nM; in experiment [4], 500 to 1000 nM; in experiment [5], 10 to 50 nM. Moreover, the “substrate protein remaining % GSPT1” value on GSPT1 was “A (A represents 0% ≤ substrate protein remaining % ≤ 50%)”. The “substrate protein remaining % IKZF3” value on IKZF3 is listed as “B (B represents substrate protein remaining % > 50%)”.

In the case of `O=C1CCC(N2Cc3cc(CN4CCN(C5c6ccccc6-c6ccccc65)CC4)ccc3C2=O)C(=O)N1` (stereo not drawn) [GT-05907, 3-(5-((4-(9H-fluoren-9-yl)piperazin-1-yl)methyl)-1-oxoisoindolin-2-yl)piperidine-2,6-dione], the “substrate protein remaining % IKZF1” value at IKZF1 is “A (A represents 0% ≤ substrate protein remaining % ≤ 50%)”. Moreover, the IC50 in experiment [1] was below 0.5 µM; in experiment [2] it was 1 to 10 nM; in experiment [3], 10 to 50 nM; in experiment [4], 10 to 50 nM; in experiment [5], 10 to 50 nM. Besides, the “substrate protein remaining % GSPT1” value at GSPT1 is reported as “A (A represents 0% ≤ substrate protein remaining % ≤ 50%)”. In addition, the “substrate protein remaining % IKZF3” value at IKZF3 is given as “A (A represents 0% ≤ substrate protein remaining % ≤ 50%)”.

As for `O=C1CCC(N2Cc3cc(CN4CCN(C(c5ccccc5F)c5ccccc5F)CC4)ccc3C2=O)C(=O)N1` (stereo not drawn) [GT-06084, 3-(5-((4-(bis(2-fluorophenyl)methyl)piperazin-1-yl)methyl)-1-oxoisoindolin-2-yl)piperidine-2,6-dione], the “substrate protein remaining % IKZF1” value on IKZF1 is recorded as “A (A represents 0% ≤ substrate protein remaining % ≤ 50%)”. In addition, the IC50 in experiment [1] is below 0.5 µM; in experiment [2], 1 to 10 nM; in experiment [3], 10 to 50 nM; in experiment [4] it was 10 to 50 nM; in experiment [5], 10 to 50 nM. Moreover, the “substrate protein remaining % GSPT1” value on GSPT1 is reported as “A (A represents 0% ≤ substrate protein remaining % ≤ 50%)”. For the same molecule, the “substrate protein remaining % IKZF3” value on IKZF3 was “A (A represents 0% ≤ substrate protein remaining % ≤ 50%)”.

On to `O=C1CCC(N2C(=O)c3ccc(CN4CCN(C(c5cc(F)cc(F)c5)c5cc(F)cc(F)c5)CC4)cc3C2=O)C(=O)N1` (stereo not drawn) [GT-06596, 5-((4-(bis(3,5-difluorophenyl)methyl)piperazin-1-yl)methyl)-2-(2,6-dioxopiperidin-3-yl) isoindoline-1,3-dione], for which, at IKZF1, the “substrate protein remaining % IKZF1” value is recorded as “A (A represents 0% ≤ substrate protein remaining % ≤ 50%)”. For the same molecule, the “substrate protein remaining % GSPT1” value on GSPT1 is “A (A represents 0% ≤ substrate protein remaining % ≤ 50%)”. The “substrate protein remaining % IKZF3” value on IKZF3 is recorded as “A (A represents 0% ≤ substrate protein remaining % ≤ 50%)”. Besides, the IC50 is 50 to 100 nM in experiment [2], 100 to 500 nM in experiment [3], 500 to 1000 nM in experiment [4] and 100 to 500 nM in experiment [5].

As usually defined, the IC50 is the concentration needed to halve the response being measured.
